Results from ChEMBL document CHEMBL1121720, “Future directions in dopaminergic nervous system and dopaminergic agonists” (J Med Chem, 1981).

Biological target: T1, Renin (Rattus norvegicus) (UniProt P08424)
T1 sequence (whole entry): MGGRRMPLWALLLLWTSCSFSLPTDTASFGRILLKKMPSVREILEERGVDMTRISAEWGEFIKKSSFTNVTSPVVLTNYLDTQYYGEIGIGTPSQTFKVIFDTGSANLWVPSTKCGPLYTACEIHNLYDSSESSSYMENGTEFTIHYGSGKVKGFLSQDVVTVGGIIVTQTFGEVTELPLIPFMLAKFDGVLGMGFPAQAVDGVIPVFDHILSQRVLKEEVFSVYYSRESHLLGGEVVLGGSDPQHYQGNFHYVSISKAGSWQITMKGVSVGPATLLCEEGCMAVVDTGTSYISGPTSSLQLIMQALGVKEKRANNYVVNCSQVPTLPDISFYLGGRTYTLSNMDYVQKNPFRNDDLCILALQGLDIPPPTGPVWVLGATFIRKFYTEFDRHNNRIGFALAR
Assay: Compound was evaluated for its ability to reduce plasma renin activity; Ranges is 20-40
Assay type: functional, cell-free
Parameters: scale not given: the % may be the effect or the level left

CC(C)C[C@H]1C(=O)N2CCCC2[C@]2(C)O[C@](NC(=O)C3C=C4c5cccc6[nH]c(Br)c(c56)C[C@H]4N(C)C3)(C(C)C)C(=O)N12 (stereo partly specified)
Activity: 20%
